In the supplement of paper PMC6723410:

Each compound was assayed on GUMC-403 (assay: viability at highest tested concentration (max response) relative to DMSO (% of DMSO control); higher = less cytotoxic). Conditions: library / dose series: MIPE library, 11-point 1:3 dilution; top concentration 7.37 µM; 48 h.
Procedure, shortened: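 Each figure stands for viability at the highest tested concentration compared with vehicle control. It was measured by CellTiter-Glo luminescence on a ViewLux after 48 h of exposure to 23 nL of pinned compound, with vehicle wells taken as 100% and empty wells as 0%. The cells were patient-derived GUMC-403 papilloma cells grown by conditional reprogramming, plated at 700/well in 5 μL F + Y medium in 1536-well plates.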

Compound | viability
COc1ccc(CC2c3cc(OC)c(OC)cc3CC[N+]2(C)CCC(=O)OCCCCCOC(=O)CC[N+]2(C)CCc3cc(OC)c(OC)cc3C2Cc2ccc(OC)c(OC)c2)cc1OC (stereo not drawn) | 84

Same assay, conditions: library / dose series: MIPE library, 11-point 1:3 dilution; top concentration 13.4 µM; 48 h

Compound | viability
O.O.CCN1CCN(C(=O)N[C@H](C(=O)N[C@H]2[C@@H]3SC\C(=C(/N3C2=O)C(O)=O)CSC4=NN=N[N]4C)C5=CC=C(O)C=C5)C(=O)C1=O | 130

Same assay, conditions: library / dose series: MIPE library, 11-point 1:3 dilution; top concentration 23 µM; 48 h

Compound | viability
CCCCCCCCCCCCCCCCCCOP(=O)([O-])OC1CC[N+](C)(C)CC1 | 127
Clc1ccc2c(N3CCN(CCCN4CCN(c5ccnc6cc(Cl)ccc56)CC4)CC3)ccnc2c1 | 119
Cn1cc(C[C@@H](N)C(=O)O)c2ccccc21 | 111

Same assay, conditions: library / dose series: MIPE library, 11-point 1:3 dilution; top concentration 46.1 µM; 48 h

Compound | viability
N#CC[C@H](C1CCCC1)n1cc(-c2ncnc3[nH]ccc23)cn1 | 117
COc1cc(OC)c(NC(=O)Nc2cc(C)on2)cc1Cl | 131
C=CC(=O)Nc1cccc(Oc2nc(Nc3ccc(N4CCN(C)CC4)cc3)ncc2Cl)c1 | 26.8
NC(=O)c1ccc(-c2nc(-c3ccc4c(c3)OCCO4)c(-c3ccccn3)[nH]2)cc1 | 131
Cc1c(C)c2c(c(C)c1O)CCC(C)(COc1ccc(CC3SC(=O)NC3=O)cc1)O2 (stereo not drawn) | 82
C[C@H]1COC/2=C1/C(=O)C(=O)C3=C4CCCC(C)(C)C4=CC=C23 | 137
Nc1ccc(C(=O)c2cc3c(ccc4ccccc43)[nH]2)cc1 | 109
Cc1cc(-c2ncc(CC(=O)Nc3ccc(-c4cnccn4)cn3)cc2C)ccn1 | 85.8
O=C1c2cccc(O)c2C(=O)c2c(O)cc(CO)cc21 | 92.9
OC(=O)CNC(=O)\C1=C(/O)C2=CC=CC=C2N(CC3=CC=CC=C3)C1=O | 108
CN(C[C@@H]1COCCO1)[S+]([O-])(=O)NC2=CC3=C(C=C2)\C=C/C4=C(C=C(C=N4)C5=C[N](C)N=C5)C3=O | 114
COC[C@H](c1ccc(C(F)(F)F)cc1)N1CCN(C2(C)CCN(C(=O)c3c(C)ncnc3C)CC2)C[C@H]1C.O=C(O)/C=C\C(=O)O | 57.9
Cc1nccn1CC1CCc2c(c3ccccc3n2C)C1=O (stereo not drawn) | 103
COc1cc([C@@H]2c3cc4c(cc3[C@H](O)[C@H]3COC(=O)[C@@H]23)OCO4)cc(OC)c1OC | 99.5
FC(F)(F)c1ccc(/C=C/c2nc(COc3ccc(CCCCn4ccnn4)cc3)co2)cc1 | 98.1
Nc1nc(N)c(N=O)c(OCC2CCCCC2)n1 | 88.3
N[C@@H](C(=O)N[C@H]1[C@H]2SC\C(=C(/N2C1=O)C(O)=O)Cl)C3=CC=CC=C3 | 122

Compound | viability
COc1cc2c(Nc3ccc(NC(=O)c4ccccc4)cc3)ncnc2cc1OCCCN1CCOCC1 | 117
COc1ccnc(C[S+]([O-])c2nc3cc(OC(F)F)ccc3[nH]2)c1OC (stereo not drawn) | 98.7
Cc1cnc(-c2cc(N3CCN(C(=O)CC[S+](C)(=O)[O-])CC3)ncc2Cl)c(C)c1 | 72.3
c1ccc(-c2nn3c(c2-c2ccnc4cc(OCCN5CCOCC5)ccc24)CCC3)nc1 | 148
CN1C(=O)C[C@H](C(=O)N[C@@H](Cc2cnc[nH]2)C(=O)N2CCC[C@H]2C(N)=O)NC1=O | 103
O=C(C1CCCCC1)N1CC(=O)N2CCc3ccccc3C2C1 (stereo not drawn) | 109
CC[C@H](CC#N)OC(=O)N[C@@H](C)c1cccc(NC(=O)Nc2ccc(-c3cnco3)c(OC)c2)c1 | 124
N#C/N=C(\NCCCCCCOc1ccc(Cl)cc1)Nc1ccncc1 | 115
COc1ccc(-c2cc3nccn3c(Nc3ncccc3C(N)=O)n2)cc1OC | 107
CCC(=O)N1CCN(CC1)C2=C(C=C(C=C2)N3C(=O)\C=C/C4=C3C5=CC(=CC=C5N=C4)C6=CN=C7C=CC=CC7=C6)C(F)(F)F | 73.8
CCCN1CCO[C@@H]2c3cc(O)ccc3OC[C@H]21 | 102
COc1cc([C@@H]2c3cc4c(cc3[C@@H](O[C@@H]3O[C@@H]5CO[C@@H](C)O[C@H]5[C@H](O)[C@H]3O)[C@H]3COC(=O)[C@H]23)OCO4)cc(OC)c1O | 124
Clc1ccc2ncc(-c3cccc(NC4CNC4)n3)n2c1 | 124
ClC1=C[NH]N=C1C\2NC(=N\C3=C2C(=O)CCC3)/NC4=NC5=CC=CC=C5O4 (stereo not drawn) | 124
CCCCc1oc2ccccc2c1C(=O)c1cc(I)c(OCCN(CC)CC)c(I)c1 | 95.4
COCC1(CO)C(=O)C2CCN1CC2 (stereo not drawn) | 108
